“Also recorded” adds a separate entry of the source.

In experiment [1] the test system is EGFP reporter vectors under the transcriptional control of the ribosomal protein RPS30, RPS23I-M, or RPS30I-M1 sequences. Kind of experiment: EGFP reporter under ribosomal protein promoters with control stable 3′UTR, treated with inducers (FIG. 1B). The class given is cell-based, human. The conditions noted are these: HEK293 cells, okadaic acid 100 nM or TNF-α 10 ng/ml, added about 20 hr after transfection. As to the method:
(§1) B HEK293 cells in 96-well plates were transfected with 150 ng of EGFP reporter vectors that are under the transcriptional control of the ribosomal protein RPS30, RPS23I-M, or RPS30I-M1 sequences. The EGFP reporter contains control stable 3′UTR. After approximately 20 hr, the cells were treated with the following compounds: okadaic acid (100 nM) or TNF-α (10 ng/ml) to induce post-transcriptional induction, if any. High resolution images were obtained automatically by BD high-content imager. Quantitation was performed with our in-house ProXcell imaging algorithm.

The test system of experiment [2] is control RPS30-3′UTR reporter. Kind of experiment: RPS30I-M1 EGFP reporter with control stable 3′UTR, post-transcriptional induction (FIG. 3). Type of experiment: cell-based, human. The conditions noted are these: HEK293 cells, okadaic acid 100 nM. The method, then: as §1, with “Selective for post-transcriptional regulation in the RPS30I-M linked-reporter system. HEK293” for “B HEK293”, “protein RPS30I-M1.” for “protein RPS30, RPS23I-M, or RPS30I-M1 sequences.”, “contains either” for “contains”, “stable 3′UTR or 3′UTR which contain 200 bases of IL-8 3′UTR sequences known to contain mRNA destabilization elements, AU-rich elements.” for “stable 3′UTR.”, “or IL-α (3” for “or TNF-α (10”
The RPS30I-M1 with control 3′UTR, RPS30I-M1 with IL-8 3′UTR, and RPS30I-M1 with TNF-α 3′UTR vectors were tested for use to assess post-transcriptional regulation. Transfected cells were stimulated with the following compounds, IL-α or okadaic acid. Any compound or modulators such as protein, expression vector, or small inhibitory RNA, or any other RNA vector can be tested for the post-transcriptional effects, i.e., induction or repression.

Experiment [3] relates to RPS30I-M1-IL-8 3′UTR reporter. Kind of experiment: RPS30I-M1 EGFP reporter with IL-8 3′UTR (AU-rich elements), post-transcriptional induction (FIG. 3). Type of experiment: cell-based, human. The following applies: HEK293 cells, 3′UTR with 200 bases of IL-8 3′UTR; okadaic acid 100 nM. The method, then:
as §1, with “Selective for post-transcriptional regulation in the RPS30I-M linked-reporter system. HEK293” for “B HEK293”, “protein RPS30I-M1.” for “protein RPS30, RPS23I-M, or RPS30I-M1 sequences.”, “contains either” for “contains”, “stable 3′UTR or 3′UTR which contain 200 bases of IL-8 3′UTR sequences known to contain mRNA destabilization elements, AU-rich elements.” for “stable 3′UTR.”, “or IL-α (3” for “or TNF-α (10”
The AU-rich regions, approximately 200 bases, of TNF-α and IL-8 3′UTR were cloned into the vector. Briefly, a 237 bp region (972-1209 nt: NM_000584, SEQ ID NO. 9) that belongs to the 1250 bp IL-8 3′UTR or 250 bases from TNF-α 3′UTR: (1200-1450 bp, NM_000594, SEQ ID NO. 10) were amplified by RT-PCR using specific primers that contains BamH1 and XbaI restriction sites. The PCR products were cut by BamH I and Xba I sequentially and followed by phenol extraction and ethanol precipitation. The purified cut PCR products were ligated into the EGFP expression vector that has bovine growth hormone 3′UTR that has BamH1 and XbaI sites. […]

In experiment [4] the test system is EGFP reporter vector under the transcriptional control of the SV40 promoter. The experiment in a line: EGFP reporter under SV40 promoter, treated with inducers (FIG. 2). The class given is cell-based. The following applies: HEK293 cells, TNF-α 10 ng/ml. The method, then: (§2) HEK293 cells in 96-well plates were transfected with 150 ng of EGFP reporter vectors that are under the transcriptional control of the CMV or SV40 promoter. After approximately 20 hr, the cells were treated with the following compounds: okadaic acid (100 nM) or TNF-α (10 ng/ml) to induce post-transcriptional induction, High resolution images were obtained automatically by BD high-content imager. Quantitation was performed with ProXcell imaging algorithm.

Experiment [5] has as its system EGFP reporter vector under the transcriptional control of the CMV promoter. Kind of experiment: EGFP reporter under CMV promoter, treated with inducers (FIG. 2). The class given is cell-based. The conditions noted are these: HEK293 cells, TNF-α 10 ng/ml. The method, then: as §2

For the molecule `C=C1[C@@H](O)[C@@H]2O[C@]3(CC[C@H](/C=C/[C@@H](C)[C@@H]4CC(C)=C[C@@]5(O[C@H](C[C@@](C)(O)C(=O)O)CC[C@H]5O)O4)O3)CC[C@H]2O[C@@H]1[C@@H](O)C[C@H](C)[C@H]1O[C@@]2(CCCCO2)CC[C@H]1C` [okadaic acid], the “induction of EGFP reporter fluorescence” value in experiment [1] was “not transcriptionally inducible”; in experiment [1] (listed as okdadaic acid) it was “no induction”. The figures for the “post-transcriptional induction of EGFP reporter” value in experiment [2] and in experiment [3] were “not” and “significantly increases”, respectively.

TNF-α: the “transcriptional induction of EGFP reporter” value in experiment [4] and in experiment [5] was “respond to transcriptional induction” in each case. Moreover, the “induction of EGFP reporter fluorescence” value in experiment [1] is recorded as “no induction; also recorded: not transcriptionally inducible”.

The values are drawn from patent US8795962B2, “Expression vectors based on modified ribosomal protein promoters and uses thereof in post-transcriptional assessment” (King Faisal Specialist Hospital and Research Center, priority 2008, dated 2014).
